Activity calls are given as the source filed them.
Assays:
[1] = biological target: T1, Caspase-3 (Homo sapiens, UniProt P42574); assay: caspase-3 enzyme inhibitors, selectivity check, dose response, selectivity assay for caspase-6 allosteric inhibitor project, biochemical, fluorescence, cherry-picked samples (AID 743291)
T1 sequence (P42574 whole entry): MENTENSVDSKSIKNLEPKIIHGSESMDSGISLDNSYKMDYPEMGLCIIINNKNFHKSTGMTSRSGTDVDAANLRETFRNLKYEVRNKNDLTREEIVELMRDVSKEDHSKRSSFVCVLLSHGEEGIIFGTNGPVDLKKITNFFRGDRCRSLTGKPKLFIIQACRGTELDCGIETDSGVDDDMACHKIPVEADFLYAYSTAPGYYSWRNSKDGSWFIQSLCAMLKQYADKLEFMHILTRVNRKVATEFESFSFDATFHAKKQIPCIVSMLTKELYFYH

[2] = biological target: T2, Carboxy-terminal domain RNA polymerase II polypeptide A small phosphatase 1 (Homo sapiens, UniProt Q9GZU7); assay: inhibitors of CTDSP1, concentration-response testing, biochemical assay, absorbance-based, actives from ultra-high-throughput screening (AID 540297); type: functional
T2 sequence (Q9GZU7 whole entry): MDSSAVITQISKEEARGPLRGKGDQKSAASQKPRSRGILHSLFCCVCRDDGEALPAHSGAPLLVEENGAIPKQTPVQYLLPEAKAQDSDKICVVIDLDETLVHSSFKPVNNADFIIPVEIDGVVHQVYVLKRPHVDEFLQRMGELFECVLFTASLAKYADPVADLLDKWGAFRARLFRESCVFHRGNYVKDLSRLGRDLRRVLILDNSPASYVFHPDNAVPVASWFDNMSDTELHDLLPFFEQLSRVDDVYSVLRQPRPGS

[3] = biological target: T3, RNA-binding protein pos-1 (Caenorhabditis elegans, UniProt G5EF15); assay: inhibitors of POS-1/mex-3 RNA binding, dose response, biochemical, fluorescence polarization (AID 1964);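 also: purified POS-1 fused to maltose binding protein made in E. coli; potency of compounds blocking POS-1 binding to fluorescent RNA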
T3 sequence (G5EF15 whole entry): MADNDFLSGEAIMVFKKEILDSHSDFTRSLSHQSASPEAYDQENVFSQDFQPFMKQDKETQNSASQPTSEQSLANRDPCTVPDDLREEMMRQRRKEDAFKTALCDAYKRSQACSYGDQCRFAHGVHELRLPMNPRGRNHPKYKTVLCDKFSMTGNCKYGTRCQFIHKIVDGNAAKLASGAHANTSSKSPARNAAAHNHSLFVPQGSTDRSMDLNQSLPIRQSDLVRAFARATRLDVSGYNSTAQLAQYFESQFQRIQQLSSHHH

[4] = biological target: T4, Zinc finger protein mex-5 (Caenorhabditis elegans, UniProt Q9XUB2); assay: MEX-5/TCR-2 RNA interaction inhibitors, dose response, biochemical, C. elegans, fluorescence polarization (AID 1960)
T4 sequence (Q9XUB2 whole entry): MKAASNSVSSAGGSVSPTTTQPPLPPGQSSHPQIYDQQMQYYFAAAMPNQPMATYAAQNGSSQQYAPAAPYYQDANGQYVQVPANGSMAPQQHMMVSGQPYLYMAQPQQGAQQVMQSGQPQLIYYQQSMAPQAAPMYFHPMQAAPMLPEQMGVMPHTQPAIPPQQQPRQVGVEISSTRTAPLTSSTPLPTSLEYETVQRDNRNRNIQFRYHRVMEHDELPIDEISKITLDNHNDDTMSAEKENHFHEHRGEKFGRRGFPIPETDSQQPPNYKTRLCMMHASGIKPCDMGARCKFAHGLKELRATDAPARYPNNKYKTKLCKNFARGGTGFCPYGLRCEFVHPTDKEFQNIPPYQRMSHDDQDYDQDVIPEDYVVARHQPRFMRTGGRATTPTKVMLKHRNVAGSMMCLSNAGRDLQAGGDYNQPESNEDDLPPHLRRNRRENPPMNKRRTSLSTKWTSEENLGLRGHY

[5] = biological target: T5, Histone-lysine N-methyltransferase NSD2 (Homo sapiens, UniProt O96028); type: biochemical
T5 sequence (O96028 whole entry): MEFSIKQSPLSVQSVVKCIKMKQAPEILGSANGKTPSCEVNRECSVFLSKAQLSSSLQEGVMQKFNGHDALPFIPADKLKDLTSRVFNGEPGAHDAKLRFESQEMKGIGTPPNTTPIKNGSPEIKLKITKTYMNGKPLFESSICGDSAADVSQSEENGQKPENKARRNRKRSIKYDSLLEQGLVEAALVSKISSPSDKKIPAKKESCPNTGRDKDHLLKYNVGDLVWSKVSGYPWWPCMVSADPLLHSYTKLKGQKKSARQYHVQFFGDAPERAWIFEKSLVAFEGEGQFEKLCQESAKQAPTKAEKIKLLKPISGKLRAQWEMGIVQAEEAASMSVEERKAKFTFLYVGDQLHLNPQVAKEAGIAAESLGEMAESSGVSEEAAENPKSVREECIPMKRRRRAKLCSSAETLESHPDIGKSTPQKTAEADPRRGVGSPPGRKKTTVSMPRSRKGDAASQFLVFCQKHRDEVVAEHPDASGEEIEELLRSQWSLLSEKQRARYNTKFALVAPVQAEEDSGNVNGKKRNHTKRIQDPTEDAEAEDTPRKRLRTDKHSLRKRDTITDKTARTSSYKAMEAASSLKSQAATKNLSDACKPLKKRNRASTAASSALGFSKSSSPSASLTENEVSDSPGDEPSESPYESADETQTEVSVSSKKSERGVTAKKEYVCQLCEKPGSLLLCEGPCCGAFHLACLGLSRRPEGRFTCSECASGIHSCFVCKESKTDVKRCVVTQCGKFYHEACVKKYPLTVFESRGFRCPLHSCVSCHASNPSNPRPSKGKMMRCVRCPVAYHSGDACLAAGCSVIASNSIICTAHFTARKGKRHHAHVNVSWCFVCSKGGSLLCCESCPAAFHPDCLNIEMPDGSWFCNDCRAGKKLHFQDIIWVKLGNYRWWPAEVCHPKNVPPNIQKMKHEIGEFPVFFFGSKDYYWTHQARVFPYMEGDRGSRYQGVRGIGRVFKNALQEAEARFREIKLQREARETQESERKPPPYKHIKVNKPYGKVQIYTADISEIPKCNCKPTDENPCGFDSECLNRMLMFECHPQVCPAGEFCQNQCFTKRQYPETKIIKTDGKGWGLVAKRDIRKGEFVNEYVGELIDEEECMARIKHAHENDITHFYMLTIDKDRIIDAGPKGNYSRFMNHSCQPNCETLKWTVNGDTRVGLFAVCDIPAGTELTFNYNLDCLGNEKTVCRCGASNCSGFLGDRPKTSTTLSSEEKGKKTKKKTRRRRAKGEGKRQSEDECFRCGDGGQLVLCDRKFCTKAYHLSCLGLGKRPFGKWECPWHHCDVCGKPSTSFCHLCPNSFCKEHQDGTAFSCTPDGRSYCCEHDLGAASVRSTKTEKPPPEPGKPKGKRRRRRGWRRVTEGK

[6] = biological target: T6, Caspase-6 (Homo sapiens, UniProt P55212); assay: human caspase-6 inhibitors, dose response, biochemical, VEID-R110 fluorescence, cherry-pick (AID 720632)
T6 sequence (P55212 whole entry): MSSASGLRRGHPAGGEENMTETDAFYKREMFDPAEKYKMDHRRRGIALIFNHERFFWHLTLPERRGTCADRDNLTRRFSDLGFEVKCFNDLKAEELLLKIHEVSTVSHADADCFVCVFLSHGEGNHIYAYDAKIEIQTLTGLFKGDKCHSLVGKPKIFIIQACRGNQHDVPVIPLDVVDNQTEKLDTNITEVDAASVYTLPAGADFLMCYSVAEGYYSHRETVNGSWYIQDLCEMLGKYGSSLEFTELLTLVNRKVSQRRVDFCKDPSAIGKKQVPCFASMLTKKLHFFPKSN

[7] = biological target: Caspase-7 (Homo sapiens, UniProt P55210); assay: human caspase-7 inhibitors, dose response, selectivity assay for caspase-6 inhibitor project, biochemical, DEVD-R110 fluorescence, cherry-pick (AID 743295)
[8] = biological target: COUP transcription factor 2 (Homo sapiens, UniProt P24468); assay: Luminescence-based cell-based high throughput dose response assay to identify inhibitors of COUP-TFII (NR2F2).; type: functional;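 also: HEK293 cells transiently cotransfected with COUP-TFII expression vector and reporter; luciferase reporter luminescence driven by COUP-TFII from the pX2-168 reporter plasmid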
[9] = HepG2 cell cytotoxicity, dose response, cytotoxicity control for Shn3 inhibitor project, CellTiter-Glo, cherry-picked (AID 624134); type: functional, cell-based
[10] = inhibitors of clade B AD8 Env fusion, dose response, cell-based, cherry-pick (AID 652062); type: functional;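 also: luciferase signal from cell-cell fusion driven by HIV-1 clade B AD8 Env; potency is for inhibitors of fusion seen as a drop in luminescence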
[11] = control 3'UTR Renilla luciferase suppression, dose response, counter-screen for Shn3 inhibitor project, cell-based, Clone20-Shn3RL, cherry-picked (AID 624133); type: functional
[12] = ZM109 Env clade C HIV-1 fusion inhibitors, dose response, HeLa effector, CEM target cells, luciferase, cherry-pick (AID 652058); type: functional, cell-based
[13] = off-target signal loss in HeLa-CEM21 co-culture – HeLa F-luc CTL cells, cherry-picked, counter-screen for HIV-1 Env fusion inhibitor project, dose response (AID 652040); type: functional, cell-based;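 also: potency for signal decrease marking cytotoxic or nonspecific inhibition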
[14] = inhibitors of HIV Env-driven cell fusion, dose response, cherry-pick (AID 652057); type: functional, cell-based
[15] = Shn3 3'UTR reporter inhibitors, dose response, cell-based, Clone20 osteoblasts, firefly luciferase, cherry-picked (AID 624132); type: functional;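 also: firefly luciferase luminescence from reporter carrying the Shn3 3'UTR in osteoblasts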
[16] = cells; type: functional, cell-based; conditions: HEK-CNG
[17] = biological target: Galanin receptor type 3 (Homo sapiens, UniProt O60755); assay: Fluorescence-based cell-based primary high throughput dose response assay to identify antagonists of the Galanin Receptor 3 (GalR3).; type: functional
[18] = HEK293 cell cytotoxicity, dose response, cytotoxicity control, plate reader, cherry-picked samples (AID 743446); type: functional, cell-based
[19] = A549 cell cytotoxicity, dose response, cytotoxicity control, plate reader, cherry-pick, antagonist series (AID 743412); type: functional, cell-based
[20] = MC4R antagonists, dose response, counter-screen for LGR2 antagonist project, cell-based, plate reader, cherry pick (AID 743444); type: functional;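 also: transfected HEK 293 cells stimulated with alpha-MSH peptide; potency of inhibitors of the alpha-MSH evoked signal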
[21] = LGR2 antagonists, dose response, cell-based, HEK293, CRE-luciferase reporter, cherry pick, set 2 (AID 743343); type: functional;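 also: transfected cells were stimulated with diluted bursicon conditioned medium after compound addition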
[22] = HepG2 cell cytotoxicity, dose response, cytotoxicity control, plate reader, cherry-pick, antagonist series (AID 743416); type: functional, cell-based
[23] = tested on: HEK293; assay: inhibitors of LMP1-driven NF-kB reporter, dose response, cell-based, HEK293, luciferase, cherry-pick (AID 588343); type: functional; conditions: Homo sapiens

Sequence of Caspase-7 (P55210 24-198 limits assumed): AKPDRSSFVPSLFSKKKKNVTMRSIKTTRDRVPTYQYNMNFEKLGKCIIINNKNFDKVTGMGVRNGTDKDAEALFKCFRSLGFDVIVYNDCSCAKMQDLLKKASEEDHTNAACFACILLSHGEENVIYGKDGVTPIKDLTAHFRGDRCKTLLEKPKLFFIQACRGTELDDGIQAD
Sequence of Caspase-7 (P55210 207-303 limits assumed): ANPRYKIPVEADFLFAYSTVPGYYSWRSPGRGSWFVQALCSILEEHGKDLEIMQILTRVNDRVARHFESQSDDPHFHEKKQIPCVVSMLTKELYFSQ
Sequence of COUP transcription factor 2 (P24468 whole entry): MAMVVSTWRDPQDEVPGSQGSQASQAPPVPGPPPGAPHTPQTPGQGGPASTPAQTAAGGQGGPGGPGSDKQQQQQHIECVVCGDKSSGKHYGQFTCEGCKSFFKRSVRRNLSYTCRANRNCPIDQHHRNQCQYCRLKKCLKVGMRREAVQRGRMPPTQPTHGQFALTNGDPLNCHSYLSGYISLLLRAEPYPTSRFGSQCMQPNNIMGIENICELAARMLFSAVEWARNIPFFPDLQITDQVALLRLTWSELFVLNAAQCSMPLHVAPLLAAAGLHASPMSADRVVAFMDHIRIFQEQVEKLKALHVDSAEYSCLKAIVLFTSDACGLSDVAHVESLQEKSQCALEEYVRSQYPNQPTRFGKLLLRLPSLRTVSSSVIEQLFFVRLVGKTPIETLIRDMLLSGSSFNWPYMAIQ
Sequence of Galanin receptor type 3 (O60755 whole entry): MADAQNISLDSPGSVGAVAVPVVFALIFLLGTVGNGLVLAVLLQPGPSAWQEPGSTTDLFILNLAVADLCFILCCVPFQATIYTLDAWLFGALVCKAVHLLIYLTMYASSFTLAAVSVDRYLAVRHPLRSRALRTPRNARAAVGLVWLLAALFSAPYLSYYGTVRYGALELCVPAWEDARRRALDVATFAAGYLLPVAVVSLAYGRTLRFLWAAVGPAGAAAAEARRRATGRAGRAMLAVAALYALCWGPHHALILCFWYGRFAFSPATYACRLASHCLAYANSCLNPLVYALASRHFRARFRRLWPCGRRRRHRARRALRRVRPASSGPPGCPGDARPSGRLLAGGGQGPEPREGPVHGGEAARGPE

## Cc1cc(C=O)c(C)n1-c1ccc(Cl)c(C(=O)O)c1
[1]
  AC50: 43.1 µM (active)
[2]
  IC50: 4.61 µM (active)
[3]
  EC50: > 300 µM (not active)
[4]
  EC50: > 300 µM (not active)
[5]
  AC50: 10.6 µM (active)
[6]
  AC50: 1.47 µM (active)
[7]
  AC50: > 70 µM (inactive)

## c1ccc(CNc2ncnc3ccccc23)cc1
[8]
  IC50: 9.32 µM (active)
[9]
  AC50: 5.24 µM (active)
[10]
  AC50: 4.91 µM (active)
[11]
  AC50: 18.9 µM (active)
[12]
  AC50: 3.66 µM (active)
[13]
  AC50: 15 µM (active)
[14]
  AC50: 10.7 µM (active)
[15]
  AC50: 1.5 µM (active)
[16]
  EC50: > 29.9 µM (inactive)
[17]
  IC50: 1.25 µM (active)

## O=C(Nc1ccc2c(c1)OCCO2)c1ccccn1
[18]
  AC50: 27.3 µM (active)
[19]
  AC50: 19.9 µM (active)
[20]
  AC50: 2.75 µM (active)
[21]
  AC50: 3.29 µM (active)
[22]
  AC50: 48.5 µM (active)
[23]
  AC50: 2.3 µM (active)
